# Assay results: paper PMC6278378, “Virtual Screening, Biological Evaluation, and 3D-QSAR Studies of New HIV-1 Entry Inhibitors That Function via the CD4 Primary Receptor” (Molecules, 2018)
# Entries after “also recorded” stand apart in the source; their conditions may differ.
# Tests used:
# [1] = test system: HIV-1 (NL4-3 strain); test: microbe, parasite or virus in culture; type: cell-based; conditions: Human immunodeficiency virus 1, NL43, PBMC; PBMCs, HIV-1 NL4-3, 24 h; read-out: IC50, HIV-1 entry inhibition (intracellular p24)
# Description: We also performed anti-HIV-1 entry assays to investigate the potential suppression by 3 of HIV-1 infection via its entry mechanism.
# The Anti-HIV-1 entry assay was performed by measuring intercellular p24 antigen. Before the infection, PBMCs (2.5 × 10^6 cells/mL) were added into 96-well plates at 100 μL/well, then co-incubated with compounds of various concentrations for 2 h. PBMCs were then washed twice with PBS and infected with the NL4-3 strain of HIV-1 at an MOI of 0.02 for 2 h at 37 °C with 5% CO2 (CO2 incubator, Eppendorf, Hamburg, Germany). After two washes with PBS (1200 rpm, 20 °C, 5 min), the cells were re-suspended in 100 µL complete medium and incubated for 24 h. Subsequently, the PBMCs were washed and resuspended in 100 µL/well lysis buffer containing 1% protease inhibitor cocktail (Sigma-Aldrich, St. Louis, MO, USA). The intercellular p24 antigen was measured according to the protocol provided with the HIV-1 ELISA kit (PerkinElmer Inc. Waltham, MA, USA).
# [2] = test system: HIV-1 NL4-3 strain; test: Anti-HIV-1 infection assay (CEM-GFP reporter cells, GFP fluorescence); type: cell-based; conditions: Human immunodeficiency virus 1, NL43, HIV-1 NL4-3, 4-5 days
# From the text: We performed anti-HIV-1 infection and anti-HIV-1 entry assays by measuring GFP expression and intracellular p24 antigen level. For the anti-HIV-1 infection assays, the CEM-GFP reporter cell line was used, and HIV-1 infection induced a 10- to 1000-fold increase in the relative fluorescence of the cells.
# The CEM-GFP cells were obtained from the NIH AIDS program (NIH AIDS Reagent Program, Division of AIDS, NIAID, NIH: CEM-GFP Cells from Dr. Jacques Corbeil) and cultured in RPMI 1640 medium containing 10% FBS, 1% penicillin-streptomycin (Life Technologies, Carlsbad, CA, USA), 1% 200 mM L-glutamine (Mediatech-VWR, Aurora, CO, USA), and 500 µg/mL G418 (BioPioneer Inc, San Diego, CA, USA). After collecting and counting, the CEM-GFP cells were infected with HIV-1 NL4-3 strain (MOI 0.01) at 37 °C for 2–3 h, cells were then washed twice with PBS, and 10^5 cells/well were seeded into a 96-well plate in the presence of different concentrations of test compounds. After culturing at 37 °C with 5% CO2 for 4 or 5 days, the GFP fluorescence (485EX/528EM) was measured using a Synergy II microplate reader (BioTek Instruments, Inc., Winooski, VT, USA).
# [3] = test system: SUP-T1 cells; test: SUP-T1 cell viability assay; type: cell-based; conditions: up to 200 μM
# Description: We also performed a cell viability assay to test the potential cytotoxicity of 3. In parallel with the competitive CD4 binding assay described above, the same densities of SUP-T1 cells were seeded and treated with the test compounds for the same duration.
# [4] = test system: PBMCs; test: PBMC viability assay (CellTiter-Blue); type: cell-based; conditions: up to 150 μM
# Description: We employed a cell viability assay to test the potential cytotoxicity of 3. In parallel with the anti-HIV-1 assay described above, the same densities of PBMCs were seeded and treated with the test compounds for the same duration.
# Blood samples were collected from healthy donors and diluted with an equal amount of 1× PBS. Approximately 15 mL Ficoll was transferred to a sterile 50 mL tube, and then overlaid with 15 mL diluted blood. After centrifugation (Centrifuge 5810R, Eppendorf, Hamburg, Germany) at 1800 rpm for 30 min at room temperature, the PBMCs were obtained and washed twice with 40 mL 1× PBS by centrifugation (1100 rpm, 10 min for each time) at room temperature. Cell pellets were resuspended in 50 mL RPMI 1640 supplemented with 10% FBS and 100 μg/mL Phytohemagglutinin (PHA, Sigma-Aldrich, St. Louis, MO, USA) and cultured for 24 h at 37 °C with 5% CO2. […]
# In addition to the anti-HIV assays described above, the same numbers of PBMCs were seeded and treated with the test compounds for the same periods. After a 24 h incubation at 37 °C, the cell viability was determined using the CellTiter-Blue (Promega Co., Madison, WI, USA) cell viability assay. The fluorescence (560EX/590EM) was recorded using a Synergy II microplate reader.
# [5] = test system: HIV-1; parameters: method as in PMID 12207905; conditions: inactive or weakly active; cited from earlier work
# [6] = target: T1, CD4 (Homo sapiens, UniProt P01730); test: CD4 competitive binding assay (FITC anti-human CD4 antibody, SUP-T1 cells)
# T1 construct: endogenous in cells; host or cells: SUP-T1 cells
# Description: We chose CD4-expressing SUP-T1 cells to perform the competitive CD4 binding assay. Non-labeled anti-human CD4 antibody (RPA-T4 clone, BioLegend, San Diego, CA, USA) was used as a positive control.
# The SUP-T1 cells were cultured in RPMI1640 medium supplemented with 10% (v/v) fetal bovine serum (FBS), 100 IU penicillin, 0.1 mg/mL streptomycin, and 2 mM L-glutamine. After collecting and washing twice with fluorescence activated cell sorting (FACS) buffer (0.5% BSA, 0.05% sodium azide in PBS) by centrifugation, SUP-T1 cells were seeded in a 96-well v-bottom plate at 5 × 10^5 cells/well. The supernatant was discarded by centrifugation and the cell pellet was resuspended with 50 μL various 2× concentrations of test compounds and 50 μL fluorescein isothiocyanate (FITC) labeled anti-human CD4 antibody (RPA-T4 clone, BioLegend, San Diego, CA, USA). The plate was incubated for 40 min on ice. After incubation, the cells were washed twice with FACS buffer by centrifugation, and then resuspended with the assay buffer. The FACS buffer was added at a volume of 50 μL per well. The fluorescence (485EX/528EM) was recorded using a Synergy II plate reader (BioTek Instruments, Inc., Winooski, VT, USA). Experimental data were generated in duplicate each time, and from at least three independent experiments. The mean values of fluorescence were normalized and expressed as a percentage of the control group values. Binding curves and IC50 values were calculated by GraphPad Prism 7 (GraphPad Software Inc., La Jolla, CA, USA) and presented as the mean ± SEM.
# [7] = test system: various cancer cell lines; parameters: method as in PMID 26474275, PMID 22524450; conditions: 100 μM; by increasing intracellular ROS level; cited from earlier work
compound,measurement,setting,value
"O=C(O)CCc1c2ccc(=O)c(O)c-2oc2c(O)c(O)ccc12 [Compound 3, 3-(4,5,6-trihydroxy-3-oxo-3H-xanthen-9-yl) propanoic acid]",IC50,[1],9 µM
same,IC50,[2],10 µM
same,Cytotoxicity in SUP-T1 cell viability assay,[3],no cytotoxicity
same,Cytotoxicity in SUP-T1 cell viability assay,[3]; listed as NSC119915,not showing any cytotoxicity
same,Cytotoxicity in PBMCs,[4],without a cytotoxicity effect; also recorded: no cytotoxicity; also recorded: did not show an ability to affect cell growth
same,protection in anti-HIV-1 infection assay,[5],0–49%
same,inhibition at 100 µM,"[6]; 100 μM, inhibition of anti-human CD4 antibody binding to SUP-T1 cells",94.9%
same,IC50,"[6]; SUP-T1 cells, anti-human CD4 antibody competition",45 µM
same,PInhibition (Experimental Data),"[6]; transformed from % inhibition at 100 μM, presented as -ln",5.273
same,growth inhibition of cancer cell lines,[7],inhibit the growth
